From patent US11229623B2 (GlaxoSmithKline Intellectual Property (No.2) Limited, priority 2016, dated 2022)

molecular target: T1, human TRPV4 (Homo sapiens, UniProt Q9HBA0); experiment: FLIPR assay for hTRPV4 expressed in BHK cells: inhibition of Agonist Compound-induced calcium signal; format: cell-based; settings: hTRPV4 in BHK/AC9 cells, FLIPR calcium signal, agonist at EC80; reported as range class; read-out: IC50
T1 construct: expressed in transfected cells; host or cells: BHK/AC9 cells transduced with BacMam virus
T1 sequence (Q9HBA0 whole entry): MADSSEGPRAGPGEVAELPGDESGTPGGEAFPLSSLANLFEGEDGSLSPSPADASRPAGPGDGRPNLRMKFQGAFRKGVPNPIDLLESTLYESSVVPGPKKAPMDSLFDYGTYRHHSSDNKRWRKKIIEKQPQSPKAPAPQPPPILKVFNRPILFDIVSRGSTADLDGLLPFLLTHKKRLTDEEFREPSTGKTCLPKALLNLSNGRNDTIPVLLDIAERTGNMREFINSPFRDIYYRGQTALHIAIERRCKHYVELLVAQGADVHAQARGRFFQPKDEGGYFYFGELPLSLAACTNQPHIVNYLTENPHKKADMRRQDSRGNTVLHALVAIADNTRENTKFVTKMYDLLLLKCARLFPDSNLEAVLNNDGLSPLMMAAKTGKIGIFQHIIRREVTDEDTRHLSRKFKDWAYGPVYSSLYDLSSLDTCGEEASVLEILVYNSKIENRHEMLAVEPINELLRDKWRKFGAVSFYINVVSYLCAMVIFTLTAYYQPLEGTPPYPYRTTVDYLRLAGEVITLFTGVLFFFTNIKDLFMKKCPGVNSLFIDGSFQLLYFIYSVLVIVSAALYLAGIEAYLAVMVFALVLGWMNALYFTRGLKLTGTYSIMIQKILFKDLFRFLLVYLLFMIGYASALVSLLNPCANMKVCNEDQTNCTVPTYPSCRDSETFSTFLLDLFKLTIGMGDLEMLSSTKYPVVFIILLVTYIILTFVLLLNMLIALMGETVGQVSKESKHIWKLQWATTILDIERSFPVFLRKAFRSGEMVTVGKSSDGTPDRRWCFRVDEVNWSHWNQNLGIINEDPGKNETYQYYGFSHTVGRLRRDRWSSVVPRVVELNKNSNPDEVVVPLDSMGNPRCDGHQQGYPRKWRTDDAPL
In short: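 BHK/AC9 cells transduced with BacMam human TRPV4 (MOI 78), plated 15,000 per well and cultured 24 h at 37° C. Loaded with 2 μM Fluo-4 AM plus 500 μM Brilliant Black in HBSS for 1-1.5 h at room temperature in the dark; intracellular calcium signal read by FLIPR fluorescence.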

Compound	IC50 [nM]
N#Cc1ccc(O[C@H]2CN(S(=O)(=O)c3cccc(OC(F)(F)F)n3)C[C@@]2(O)CO)cc1F [Example 132, 2-fluoro-4-(((3S,4R)-4-hydroxy-4-(hydroxymethyl)-1-((6-(trifluoromethoxy)pyridin-2-yl)sulfonyl)pyrrolidin-3-yl)oxy)benzonitrile]	10 to 100
CC#Cc1ccc(S(=O)(=O)N2C[C@H](Oc3ccc(C#N)c(F)c3)[C@](O)(CO)C2)cc1 [Example 222, 2-fluoro-4-(((3S,4R)-4-hydroxy-4-(hydroxymethyl)-1-((4-(prop-1-yn-1-yl)phenyl)sulfonyl)pyrrolidin-3-yl)oxy)benzonitrile]	0.1 to 10
N#Cc1ccc(O[C@H]2CN(S(=O)(=O)c3ccc(C(F)(F)F)cc3C#N)C[C@@]2(O)CO)cn1 [Example 69, 5-(((3S,4R)-1-((2-cyano-4-(trifluoromethyl)phenyl)sulfonyl)-4-hydroxy-4-(hydroxymethyl)pyrrolidin-3-yl)oxy)picolinonitrile]	10 to 100
